Among the data in patent US20170253607A1, “LONG-ACTING HIV PROTEASE INHIBITOR” (Shionogi & Co., Ltd., priority 2014, published 2017) are IC50 values, retold here.

A word on the IC50: it is the concentration needed to halve the response being measured. A higher IC50 goes with lower potency.

This assay has as its target HIV-1 PR (Human immunodeficiency virus type 1 group M subtype B, UniProt P04585). The assay can be described thus: HIV-protease inhibitory activity assay (FRET peptide substrate). The assay is classed as biochemical. As to conditions: Test Example 1. Put shortly: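 Compounds were preincubated with HIV-1 PR (0.83 ng) at room temperature in pH 4.8 NaAc buffer (0.5 M NaCl, EDTA, DTT, Tween 20), then HiLyte Fluor 488/QXL 520 FRET peptide (2 μmol/L final) was added for 60 min. Fluorescence was read at 485/535 nm, and IC50 was fitted by four-parameter logistic regression.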
`COc1ccc(S(=O)(=O)N(CC(C)C)CC(O)C(Cc2ccc(-c3ccc(Cn4nc5c(c4C(=O)O)CC(C)(C)CC5)cc3)cc2)NC(=O)OC2COC3(C)OCCC23)cc1` (stereo not drawn) [Compound I-217] had an IC50 of 1.95 nM.

`COc1ccc(S(=O)(=O)N(CC(C)C)CC(O)C(Cc2ccc(C(=O)N(C)Cc3ccccc3-c3sc4c(c3C(=O)O)CC(C)(C)CC4)cc2)NC(=O)OC2COC3(C)OCCC23)cc1` (stereo not drawn) [Compound I-219] yielded an IC50 of 2.06 nM. The IC50 values of the last two molecules are within 1.5-fold of each other. The molecule `COc1ccc(S(=O)(=O)N(CC(C)C)CC(O)C(Cc2ccc(N(C)C(=O)Nc3sc4c(c3C(=O)O)CC(C)(C)CC4)cc2)NC(=O)OC2COC3(C)OCCC23)cc1` (stereo not drawn) [Compound I-220] returned an IC50 of 2.08 nM. This IC50 and that of the molecule before are within 1.5-fold of each other. Consider `COc1ccc(S(=O)(=O)N(CC2CCCC2)CC(O)C(Cc2ccc(OCc3ccccc3Cn3nc(C(=O)O)c4c3CCC(C)(C)C4)cc2)NC(=O)OC2COC3(C)OCCC23)cc1` (stereo not drawn) [Compound I-221], for which the IC50 turned out to be 2.11 nM.

`COc1ccc(S(=O)(=O)N(CC(C)C)CC(O)C(Cc2ccc(N3Cc4ccc(-c5sc6c(c5C(=O)O)CC(C)(C)CC6)cc4C3)cc2)NC(=O)OC2COC3(C)OCCC23)cc1` (stereo not drawn) [Compound I-222] yielded an IC50 of 2.9 nM. This IC50 and that of the molecule before are within 1.5-fold of each other. Then `COc1ccc(S(=O)(=O)N(CC(C)C)CC(O)C(Cc2ccc(N3CC4CN(C(=O)c5sc6c(c5C(=O)O)CC(C)(C)CC6)CC4C3)cc2)NC(=O)OC2COC3(C)OCCC23)cc1` (stereo not drawn) [Compound I-223], with 1.97 nM. The molecule `COc1ccc(S(=O)(=O)N(CC(C)C)CC(O)C(Cc2ccc(N3CCN(C(=O)c4sc5c(c4C(=O)O)CC(C)(C)CC5)CC3)cc2)NC(=O)OC2COC3(C)OCCC23)cc1` (stereo not drawn) [Compound I-224] showed an IC50 of 1.96 nM. This IC50 and that of the molecule before are within 1.5-fold of each other. Then `COc1ccc(S(=O)(=O)N(CC(C)C)CC(O)C(Cc2ccc(N3CCc4nc(-c5sc6c(c5C(=O)O)CC(C)(C)CC6)sc4C3)cc2)NC(=O)OC2COC3(C)OCCC23)cc1` (stereo not drawn) [Compound I-225], with 2.31 nM; and `COc1ccc(S(=O)(=O)N(CC(C)C)CC(O)C(Cc2ccc(N3CCc4c(cccc4-c4sc5c(c4C(=O)O)CC(C)(C)CC5)C3)cc2)NC(=O)OC2COC3(C)OCCC23)cc1` (stereo not drawn) [Compound I-226], with 4.48 nM; and `COc1ccc(S(=O)(=O)N(CC(C)C)CC(O)C(Cc2ccc(N3CCC(c4sc5c(c4C(=O)O)CC(C)(C)CC5)CC3)cc2)NC(=O)OC2COC3(C)OCCC23)cc1` (stereo not drawn) [Compound I-227], with 3.26 nM.

`COc1ccc(S(=O)(=O)N(CC(C)C)CC(O)C(Cc2ccc(OCc3ccccc3NC(=O)Nc3sc4c(c3C(=O)O)CC(C)(C)CC4)cc2)NC(=O)OC2COC3(C)OCCC23)cc1` (stereo not drawn) [Compound I-229] gave a half-inhibitory concentration (IC50) of 3.7 nM. Then `COc1ccc(S(=O)(=O)N(CC(C)C)CC(O)C(Cc2ccc(N3CCN(c4ccc(C#N)cc4-c4sc5c(c4C(=O)O)CC(C)(C)CC5)CC3)cc2)NC(=O)OC2COC3(C)OCCC23)cc1` (stereo not drawn) [Compound I-232], with 4.1 nM; and `COc1ccc(S(=O)(=O)N(CC(C)C)CC(O)C(Cc2ccc(N3CC4CN(c5ccc(C#N)cc5-c5sc6c(c5C(=O)O)CC(C)(C)CC6)CC4C3)cc2)NC(=O)OC2COC3(C)OCCC23)cc1` (stereo not drawn) [Compound I-233], with 6.22 nM. The molecule `COc1ccc(S(=O)(=O)N(CC(C)C)CC(O)C(Cc2ccc(N(C)C3CCN(c4ccccc4-c4sc5c(c4C(=O)O)CC(C)(C)CC5)C3)cc2)NC(=O)OC2COC3(C)OCCC23)cc1` (stereo not drawn) [Compound I-239] displayed an IC50 of 2.74 nM. In the case of `COc1ccc(S(=O)(=O)N(CC(C)C)CC(O)C(Cc2ccc(OC3CCN(C(=O)Nc4ccc(Cl)cc4-c4sc5c(c4C(=O)O)CC(C)(C)CC5)C3)cc2)NC(=O)OC2COC3(C)OCCC23)cc1` (stereo not drawn) [Compound I-244] it was 2.01 nM; in that of `COc1ccc(S(=O)(=O)N(CC(C)C)CC(O)C(Cc2ccc(OC3CCN(C(=O)c4sc5c(c4C(=O)O)CC(C)(C)CC5)C3)cc2)NC(=O)OC2COC3(C)OCCC23)cc1` (stereo not drawn) [Compound I-245], 2.01 nM; in that of `COc1ccc(S(=O)(=O)N(CC(C)C)C[C@@H](O)[C@H](Cc2ccc(NC[C@@H]3CCCC[C@@H]3c3sc4c(c3C(=O)O)CC(C)(C)CC4)cc2)NC(=O)O[C@H]2CO[C@@]3(C)OCC[C@@H]23)cc1` [Compound I-246], 2.07 nM. The molecule `COc1ccc(S(=O)(=O)N(CC(C)C)CC(O)C(Cc2ccc(CN(C)c3ccccc3-c3sc4c(c3C(=O)O)CC(C)(C)CC4)cc2)NC(=O)OC2COC3(C)OCCC23)cc1` (stereo not drawn) [Compound I-249] displayed a half-maximal inhibitory concentration (IC50) of 2.26 nM. `COc1ccc(S(=O)(=O)N(CC(C)C)CC(O)C(Cc2ccc(CN(C)Cc3ccccc3-c3sc4c(c3C(=O)O)CC(C)(C)CC4)cc2)NC(=O)OC2COC3(C)OCCC23)cc1` (stereo not drawn) [Compound I-250] came in with an IC50 of 2.2 nM. Regarding `COc1ccc(S(=O)(=O)N(CC(C)C)CC(O)C(Cc2ccc(OCc3ccccc3-c3ncc4c(c3C(=O)O)CC(C)(C)CC4)cc2)NC(=O)OC2COC3(C)OCCC23)cc1` (stereo not drawn) [Compound I-251], the IC50 amounted to 2.3 nM. In the case of `COc1ccc(S(=O)(=O)N(CC(C)C)CC(O)C(Cc2ccc(NCc3cccc(-c4sc5c(c4C(=O)O)CC(C)(C)CC5)c3)cc2)NC(=O)OC2COC3(C)OCCC23)cc1` (stereo not drawn) [Compound I-254] it was 2.64 nM. `COc1ccc(S(=O)(=O)N(CC(C)C)CC(O)C(Cc2ccc(OCCN(C)c3ccc(C#N)cc3-c3sc4c(c3C(=O)O)CC(C)(C)CC4)cc2)NC(=O)OC2COC3(C)OCCC23)cc1` (stereo not drawn) [Compound I-257] had an IC50 of 4.98 nM.

In turn, `COc1ccc(S(=O)(=O)N(CC(C)C)CC(O)C(Cc2ccc(OCCNc3ccc(C#N)cc3-c3sc4c(c3C(=O)O)CC(C)(C)CC4)cc2)NC(=O)OC2COC3(C)OCCC23)cc1` (stereo not drawn) [Compound I-258] returned an IC50 of 5.23 nM.

As for `COc1ccc(S(=O)(=O)N(CC(C)C)CC(O)C(Cc2ccc(OCC3CCCCC3Nc3ccc(C#N)cc3-c3sc4c(c3C(=O)O)CC(C)(C)CC4)cc2)NC(=O)OC2COC3(C)OCCC23)cc1` (stereo not drawn) [Compound I-259], half-maximal inhibition (IC50) was put at 10.9 nM. Then `COc1ccc(S(=O)(=O)N(CC(C)C)CC(O)C(Cc2ccc(C(=O)NCc3ccccc3-c3sc4c(c3C(=O)O)CC(C)(C)CC4)cc2)NC(=O)OC2COC3(C)OCCC23)cc1` (stereo not drawn) [Compound I-263], with 3.41 nM; and `COc1ccc(S(=O)(=O)N(CC(C)C)CC(O)C(Cc2ccc(CN(C)c3cccc(-c4sc5c(c4C(=O)O)CC(C)(C)CC5)c3)cc2)NC(=O)OC2COC3(C)OCCC23)cc1` (stereo not drawn) [Compound I-264], with 3.53 nM; and `COc1ccc(S(=O)(=O)N(CC(C)C)CC(O)C(Cc2ccc(CN(C)Cc3cccc(-c4sc5c(c4C(=O)O)CC(C)(C)CC5)c3)cc2)NC(=O)OC2COC3(C)OCCC23)cc1` (stereo not drawn) [Compound I-266], with 2.61 nM.

`COc1ccc(S(=O)(=O)N(CC(C)C)CC(O)C(Cc2ccc(N(C)C(=O)Nc3ccccc3-c3sc4c(c3C(=O)O)CC(C)(C)CC4)cc2)NC(=O)OC2COC3(C)OCCC23)cc1` (stereo not drawn) [Compound I-269] had a half-inhibitory concentration (IC50) of 3.41 nM. The IC50 values of the last two molecules are within 1.5-fold of each other. Then `COc1ccc(S(=O)(=O)N(CC(C)C)CC(O)C(Cc2ccc(NC(=O)Nc3ccccc3-c3sc4c(c3C(=O)O)CC(C)(C)CC4)cc2)NC(=O)OC2COC3(C)OCCC23)cc1` (stereo not drawn) [Compound I-270], with 3.38 nM; and `COc1ccc(S(=O)(=O)N(CC(C)C)CC(O)C(Cc2ccc(NCc3ccncc3-c3sc4c(c3C(=O)O)CC(C)(C)CC4)cc2)NC(=O)OC2COC3(C)OCCC23)cc1` (stereo not drawn) [Compound I-273], with 2.25 nM; and `COc1ccc(S(=O)(=O)N(CC(C)C)CC(O)C(Cc2ccc(NCc3occc3-c3sc4c(c3C(=O)O)CC(C)(C)CC4)cc2)NC(=O)OC2COC3(C)OCCC23)cc1` (stereo not drawn) [Compound I-276], with 2.16 nM.

With `COc1ccc(S(=O)(=O)N(CC(C)C)CC(O)C(Cc2ccc(NCc3cnc(OC)cc3-c3sc4c(c3C(=O)O)CC(C)(C)CC4)cc2)NC(=O)OC2COC3(C)OCCC23)cc1` (stereo not drawn) [Compound I-278], the IC50 came to 1.83 nM. The molecule `COc1ccc(S(=O)(=O)N(CC(C)C)CC(O)C(Cc2ccc(NCc3c(-c4sc5c(c4C(=O)O)CC(C)(C)CC5)ccc(F)c3F)cc2)NC(=O)OC2COC3(C)OCCC23)cc1` (stereo not drawn) [Compound I-279] showed a half-inhibitory concentration (IC50) of 1.6 nM. Then `COc1ccc(S(=O)(=O)N(CC(C)C)CC(O)C(Cc2ccc(NCc3cc(-c4sc5c(c4C(=O)O)CC(C)(C)CC5)ccc3F)cc2)NC(=O)OC2COC3(C)OCCC23)cc1` (stereo not drawn) [Compound I-280], with 3.24 nM; and `COc1ccc(S(=O)(=O)N(CC(C)C)CC(O)C(Cc2ccc(NCc3cc(-c4sc5c(c4C(=O)O)CC(C)(C)CC5)ccc3OC)cc2)NC(=O)OC2COC3(C)OCCC23)cc1` (stereo not drawn) [Compound I-281], with 2.95 nM; and `COc1ccc(S(=O)(=O)N(CC(C)C)CC(O)C(Cc2ccc(NCc3ccc(-c4sc5c(c4C(=O)O)CC(C)(C)CC5)cc3F)cc2)NC(=O)OC2COC3(C)OCCC23)cc1` (stereo not drawn) [Compound I-282], with 4.04 nM.

Regarding `COc1ccc(S(=O)(=O)N(CC(C)C)CC(O)C(Cc2ccc(NCc3cccc(-c4sc5c(c4C(=O)O)CC(C)(C)CC5)n3)cc2)NC(=O)OC2COC3(C)OCCC23)cc1` (stereo not drawn) [Compound I-283], the IC50 came to 2.28 nM. Compared with the last molecule, the IC50 is about 1.8-fold lower. In the case of `COc1ccc(S(=O)(=O)N(CC(C)C)CC(O)C(Cc2ccc(NCc3cc(-c4sc5c(c4C(=O)O)CC(C)(C)CC5)co3)cc2)NC(=O)OC2COC3(C)OCCC23)cc1` (stereo not drawn) [Compound I-284] it was 2.98 nM. Take `COc1ccc(S(=O)(=O)N(CC(C)C)CC(O)C(Cc2ccc(NCc3ccc(-c4ccc(-c5sc6c(c5C(=O)O)CC(C)(C)CC6)cc4)cc3)cc2)NC(=O)OC2COC3(C)OCCC23)cc1` (stereo not drawn) [Compound I-285]: it took 7.76 nM to reach half-maximal inhibition (IC50).

`COc1ccc(S(=O)(=O)N(CC(C)C)CC(O)C(Cc2ccc(NCc3cnc4ccc(-c5sc6c(c5C(=O)O)CC(C)(C)CC6)cn34)cc2)NC(=O)OC2COC3(C)OCCC23)cc1` (stereo not drawn) [Compound I-286]: 2.06 nM corresponded to half-maximal inhibition (IC50). This IC50 lies about 3.8-fold lower than the previous one. The molecule `COc1ccc(S(=O)(=O)N(CC(C)C)CC(O)C(Cc2ccc(NCc3ccc(-c4sc5c(c4C(=O)O)CC(C)(C)CC5)o3)cc2)NC(=O)OC2COC3(C)OCCC23)cc1` (stereo not drawn) [Compound I-288] came in with an IC50 of 2.19 nM.

In turn, `COc1ccc(S(=O)(=O)N(CC(C)C)CC(O)C(Cc2ccc(NCc3nc(-c4sc5c(c4C(=O)O)CC(C)(C)CC5)cs3)cc2)NC(=O)OC2COC3(C)OCCC23)cc1` (stereo not drawn) [Compound I-289] showed an IC50 of 2.4 nM.
